Article PMC7010297, “How the initiating ribosome copes with ppGpp to translate mRNAs” (PLoS Biology, 2020)
“And” between values parts separate entries of the source, which are not always exact repeats. Identical values can stand only once.

Target: T1, IF2-bound 30S IC (Escherichia coli, UniProt P0A705)
T1 construct: 6xHis (N); made in house
Test: 30S IC formation by MST, guanosine nucleotide titration;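 on MST Average: lower thermophoresis signal means Bpy-tRNAi dissociation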;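 on MST Replicates (a.u.): lower thermophoresis signal means Bpy-tRNAi dissociation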
Assay type: binding
Details: for Kd: KD of GTP for the 30S IC
Description: To monitor the interaction of initiator tRNA and 30S ribosomal subunits, we used Microscale Thermophoresis (MST) with a fluorescently labelled initiator tRNA (Bpy-tRNAi) (Fig 1B). MST allows to measure fluorescence in a constrained space. Changes on the readout derive from molecular drifts resulting from small thermal equilibrium perturbations. Upon equilibrium perturbations, the patterns of Bpy-tRNAi migration away from the observation space are related to bound and unbound states (Fig 1B). […] On the contrary, a decrease in thermophoresis indicated the dissociation of Bpy-tRNAi. The relation between fluorescence measured at both equilibriums (Ff to Fi, after and prior to the perturbation, respectively) as a function of ligand concentration allowed to determine dissociation constants of the interaction (Fig 1C).
Continuous lines indicate nonlinear regression fittings with a quadratic equation. Three measurements were performed; mean and standard deviation are plotted (S1 Data). (B) as (A) to measure the concentration dependence for each tested guanosine nucleotide at constant IF2 (1 μM). […] Continuous lines show best fits using exponential functions. (D) Formation of 70S IC as measured by Bpy-tRNAi accommodation in the P site of the ribosome; 0.1 μM 30S ICs were formed with Bpy-tRNAi and rapidly mixed with 0.3 μM 50S subunits on a stopped-flow apparatus as described in [14]. Colors are as in (C). Continuous lines show best fits using an exponential function for a single reaction step. Each stopped-flow trace results from the mean of 5 to 7 replicates.
MST was calculated from the respective fluorescence time dependencies (S3 Fig). […] Symbols as in (B). […] Continuous lines indicate nonlinear regression fittings with quadratic (B and E) or same-site competition (G) functions. Three measurements were performed; mean and standard deviations are plotted (S1 Data).

T1 sequence (P0A705 whole entry, looked up): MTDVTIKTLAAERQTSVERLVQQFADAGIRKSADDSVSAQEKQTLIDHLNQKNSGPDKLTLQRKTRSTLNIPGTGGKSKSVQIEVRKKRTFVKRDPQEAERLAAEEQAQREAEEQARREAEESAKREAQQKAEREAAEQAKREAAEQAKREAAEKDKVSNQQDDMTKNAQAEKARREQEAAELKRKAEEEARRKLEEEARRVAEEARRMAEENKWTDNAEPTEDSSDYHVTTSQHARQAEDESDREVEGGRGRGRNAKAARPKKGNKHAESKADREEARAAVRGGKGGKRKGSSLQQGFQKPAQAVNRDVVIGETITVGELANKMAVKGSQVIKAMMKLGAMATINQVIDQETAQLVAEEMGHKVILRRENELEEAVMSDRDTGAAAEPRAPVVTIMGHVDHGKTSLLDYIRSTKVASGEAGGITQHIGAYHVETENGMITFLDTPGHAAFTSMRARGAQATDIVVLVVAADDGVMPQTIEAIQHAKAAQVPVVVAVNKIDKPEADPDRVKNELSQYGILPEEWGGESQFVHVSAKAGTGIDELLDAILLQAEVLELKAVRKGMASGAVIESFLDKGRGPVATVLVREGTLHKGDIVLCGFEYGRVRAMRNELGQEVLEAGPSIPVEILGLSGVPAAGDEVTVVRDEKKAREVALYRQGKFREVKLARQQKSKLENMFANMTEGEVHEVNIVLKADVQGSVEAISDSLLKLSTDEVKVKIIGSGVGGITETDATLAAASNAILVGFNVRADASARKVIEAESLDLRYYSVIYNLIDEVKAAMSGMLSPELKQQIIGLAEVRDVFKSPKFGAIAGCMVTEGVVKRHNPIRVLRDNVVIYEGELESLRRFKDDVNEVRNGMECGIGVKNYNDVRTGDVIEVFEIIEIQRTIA

## Nc1nc2c(ncn2[C@@H]2O[C@H](COP(=O)(O)OP(=O)(O)OP(=O)(O)O)[C@@H](O)[C@H]2O)c(=O)[nH]1 [GTP, guanosine triphosphate]
Fig 2B, nucleotide 0.005 µM
  MST Average: 931.90 a.u.
Fig 2B, nucleotide 0.005 µM, constant IF2 (1 μM)
  MST Replicates (a.u.): 929.16 a.u. and 932.86 a.u. and 933.70 a.u.
Fig 2B, nucleotide 0.01 µM
  MST Average: 935.48 a.u.
  MST Replicates (a.u.): 935.39 a.u. and 935.49 a.u. and 935.55 a.u.
Fig 2B, nucleotide 0.02 µM
  MST Average: 931.90 a.u.
  MST Replicates (a.u.): 930.17 a.u. and 932.09 a.u. and 933.42 a.u.
Fig 2B, nucleotide 0.04 µM
  MST Average: 934.94 a.u.
  MST Replicates (a.u.): 935.42 a.u. and 934.45 a.u. and 934.96 a.u.
Fig 2B, nucleotide 0.08 µM
  MST Average: 940.63 a.u.
  MST Replicates (a.u.): 937.42 a.u. and 941.79 a.u. and 942.68 a.u.
Fig 2B, nucleotide 0.16 µM
  MST Average: 949.92 a.u.
  MST Replicates (a.u.): 950.95 a.u. and 949.65 a.u. and 949.17 a.u.
Fig 2B, nucleotide 0.31 µM
  MST Average: 960.63 a.u.
  MST Replicates (a.u.): 959.49 a.u. and 961.54 a.u. and 960.87 a.u.
Fig 2B, nucleotide 0.63 µM
  MST Average: 975.44 a.u.
  MST Replicates (a.u.): 975.52 a.u. and 975.43 a.u. and 975.39 a.u.
Fig 2B, nucleotide 1.25 µM
  MST Average: 984.37 a.u.
  MST Replicates (a.u.): 979.99 a.u. and 986.37 a.u. and 986.76 a.u.
Fig 2B, nucleotide 2.50 µM
  MST Average: 1006.59 a.u.
  MST Replicates (a.u.): 1003.01 a.u. and 1008.37 a.u. and 1008.39 a.u.
Fig 2B, nucleotide 5.00 µM
  MST Average: 1020.42 a.u.
  MST Replicates (a.u.): 1016.52 a.u. and 1022.52 a.u. and 1022.21 a.u.
Fig 2B, nucleotide 10.00 µM
  MST Average: 1023.06 a.u.
  MST Replicates (a.u.): 1019.11 a.u. and 1024.56 a.u. and 1025.50 a.u.
Fig 2B, nucleotide 20.00 µM
  MST Average: 1004.40 a.u.
  MST Replicates (a.u.): 999.60 a.u. and 1006.70 a.u. and 1006.89 a.u.
30S IC programmed with mInfA
  Kd: 1900 ± 200 nM
30S IC programmed with mTufA
  Kd: 280 ± 40 nM
mInfA, GTP 0.061 μM
  MST Average: 967.92 a.u.
  MST Replicates (a.u.): 966.87 a.u. and 968.59 a.u. and 968.30 a.u.
mInfA, GTP 0.122 μM
  MST Average: 967.19 a.u.
  MST Replicates (a.u.): 972.17 a.u. and 974.24 a.u. and 955.18 a.u.
mInfA, GTP 0.244 μM
  MST Average: 974.83 a.u.
  MST Replicates (a.u.): 973.77 a.u. and 975.34 a.u. and 975.39 a.u.
mInfA, GTP 1.953 μM
  MST Average: 1006.13 a.u.
mInfA, GTP 3.906 μM
  MST Average: 1021.73 a.u.
  MST Replicates (a.u.): 1021.53 a.u. and 1022.43 a.u. and 1021.24 a.u.
mInfA, GTP 7.812 μM
  MST Average: 1043.12 a.u.
  MST Replicates (a.u.): 1042.43 a.u. and 1043.93 a.u. and 1042.99 a.u.
mInfA, GTP 15.625 μM
  MST Average: 1059.58 a.u.
  MST Replicates (a.u.): 1058.78 a.u. and 1060.65 a.u. and 1059.32 a.u.
mInfA, GTP 31.25 μM
  MST Average: 1066.52 a.u.
  MST Replicates (a.u.): 1066.71 a.u. and 1066.40 a.u. and 1066.45 a.u.
mMF1, GTP 0.061 μM
  MST Average: 955.96 a.u.
